In ChEMBL document CHEMBL3763120, “Phenyl Benzenesulfonylhydrazides Exhibit Selective Indoleamine 2,3-Dioxygenase Inhibition with Potent in Vivo Pharmacodynamic Activity and Antitumor Efficacy” (J Med Chem, 2016) one finds inhibition and bioavailability data, which are given here for 1 molecule.

Molecules are shown by their SMILES.

Data set [1] has as its target Sodium-dependent noradrenaline transporter (Homo sapiens) (UniProt P23975). Put plainly: Inhibition of Norepinephrine transporter (unknown origin) at 10 uM.
Data set [2] can be described thus: Oral bioavailability in Sprague-Dawley rat plasma at 10 mg/kg by LC-MS/MS analysis. In kind it is ADME, organism-based.

Chain of Sodium-dependent noradrenaline transporter (Homo sapiens) (P23975 whole entry): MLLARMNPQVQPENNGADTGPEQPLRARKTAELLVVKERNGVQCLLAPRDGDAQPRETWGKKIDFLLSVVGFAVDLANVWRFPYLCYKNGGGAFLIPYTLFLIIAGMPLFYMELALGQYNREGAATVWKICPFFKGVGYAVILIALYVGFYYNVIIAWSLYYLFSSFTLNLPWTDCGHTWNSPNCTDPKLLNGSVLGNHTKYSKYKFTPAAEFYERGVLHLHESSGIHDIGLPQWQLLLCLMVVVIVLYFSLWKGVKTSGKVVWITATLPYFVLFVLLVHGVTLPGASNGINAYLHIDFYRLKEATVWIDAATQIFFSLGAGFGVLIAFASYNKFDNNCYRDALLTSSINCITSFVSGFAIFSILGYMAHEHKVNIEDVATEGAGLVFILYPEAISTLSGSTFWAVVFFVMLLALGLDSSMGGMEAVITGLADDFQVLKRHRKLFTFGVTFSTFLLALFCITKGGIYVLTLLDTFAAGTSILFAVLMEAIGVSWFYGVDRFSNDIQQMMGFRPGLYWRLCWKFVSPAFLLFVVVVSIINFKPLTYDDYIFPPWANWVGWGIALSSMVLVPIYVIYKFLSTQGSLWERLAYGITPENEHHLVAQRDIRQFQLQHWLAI

`O=C1Cc2cc(S(=O)(=O)NNc3ccc(Br)cc3)ccc2N1` came in with an inhibition in data set [1] of 62%. Also, the bioavailability in data set [2] stood at 59%.

By inhibition is commonly meant the relative decrease from the control value, in per cent. The term bioavailability denotes dose-corrected exposure relative to a reference, in per cent. Higher therefore signals good availability.
